For series [1], the system named is NV and CE NK cells. The class given is cell-based. As to the method: (§1) Blood samples were obtained from healthy donors after written informed consent. Peripheral blood mononuclear cells were isolated by standard density-gradient centrifugation protocols (Lymphoprep; Fresenius Kabi). NK cells were negatively selected using EasySep negative NK cell isolation kit (Stemcell). Human NK cells were maintained in RPMI-1640 medium (Invitrogen) supplemented with 10% heat-inactivated human AB serum, 50 U/ml penicillin (Invitrogen) and 50 μg/ml streptomycin (Invitrogen) (R10AB). To generate CE NK cells, isolated NK cells were primed in R10AB containing IL-12 (10 ng/ml, R&D systems), IL-15 (1 ng/ml, PeproTech) and IL-18 (50 ng/ml, R&D systems) over-night. The next day cells were washed twice with PBS and maintained in R10AB containing IL-15 (1 ng/ml) until stimulation. Every 2-3 days 50% of the medium was replaced with fresh IL-IS (1 ng/ml). After 7 days cells were stimulated in R10AB containing IL-12 (10 ng/ml), IL-15 (1 ng/ml) and IL-18 (50 ng/ml) or with K562 leukemia targets (effector: target ratio, 5:1) for 6 hours. When indicated, cells were pre-incubated with 2-deoxy-D-glucose (10 mM, Sigma-Aldrich), Actinomycin D (1 and 10 μM, Sigma-Aldrich), Cycloheximide (10 and 100 μg/ml, Sigma-Aldrich), 2,2′-Bipyridyl (1, 10, 50 and 100 μM, Sigma-Aldrich) or 6-aminonicotinamide (50 μM, Sigma-Aldrich) for 30 min and then stimulated in R10AB containing IL-12 (10 ng/ml), IL-1S (1 ng/ml) and IL-18 (50 ng/ml) for 6 hours.
For cell proliferation assays, NK cells were loaded prior to activation with the cell-proliferation dye CFSE (1 μM, Molecular probes, USA) and seeded in 96-well plates. Cells were washed twice and maintained in R10AB with IL-15 (1 ng/ml), when indicated in the presence of inhibitors. A fixable live-dead cell stain (Fixable Viability Dye, eBioscience or Zombie Aqua, Biolegend) was used to exclude dead cells prior to sample acquisition. CFSE dilution was analyzed 65 hours post-stimulation by flow cytometry. Samples were acquired using a BD AccuriC6 or a CytoFLEX flow cytometer (Beckman Coulter). Data were analyzed with Flowjo®_V 10.5 (Tree Star, USA).

Series [2] relates to NV and CE NK cells. The experiment in a line: Immunoblot of total CD71, IRP1, IRP2 in human NK cells. The class given is cell-based. The settings on record: IL-12/IL-18 + ActD 1 and 10 μM or CHX 10 and 100 μg/ml. The procedure:
as §1
Protein concentrations were determined by BCA protein assay kit (Thermo Fisher Scientific). Total cell lysates were separated using 4%-15% Mini Protean TGX Gel (Bio-Rad, Hercules Calif., USA), and transferred to nitrocellulose membranes using Trans-Blot Turbo Transfer (Bio-Rad, Hercules Calif., USA). […] Blots were stained with appropriate secondary antibodies and the odyssey imaging system (LICOR, Lincoln Nebr., USA) was used for visualization, and the ImageJ software (1.48v) for quantification.
(A western blot detects proteins with antibodies after separation by electrophoresis.)

Series [3] deals with NV and CE NK cells. Description: Flow cytometry of surface CD71 / CD69 on human NK cells. In kind it is cell-based. As to the method:
as §1, with “When indicated, cells were pre-incubated with 2-deoxy-D-glucose (10 mM, Sigma-Aldrich), Actinomycin D (1 and 10 μM, Sigma-Aldrich), Cycloheximide (10 and 100 μg/ml, Sigma-Aldrich), 2,2′-Bipyridyl (1, 10, 50 and 100 μM, Sigma-Aldrich) or 6-aminonicotinamide (50 μM, Sigma-Aldrich) for 30 min and then stimulated in R10AB containing IL-12 (10 ng/ml), IL-1S (1 ng/ml) and IL-18 (50 ng/ml) for 6 hours.” left out
For surface staining NK cells were stained for 30 min at 4° C. with saturating concentrations of antibodies. […] Data were analyzed with Flowjo®_V10.5 (Tree Star, USA).
For orientation: In flow cytometry, cells or beads pass a laser one at a time.

For series [4], the system named is NV and CE NK cells. The experiment in a line: Transferrin uptake assay (Tf-488). In kind it is cell-based, human. The settings on record: IL-12/IL-18 + 2-DG treated NK cells. The procedure:
as §1, with “When indicated, cells were pre-incubated with 2-deoxy-D-glucose (10 mM, Sigma-Aldrich), Actinomycin D (1 and 10 μM, Sigma-Aldrich), Cycloheximide (10 and 100 μg/ml, Sigma-Aldrich), 2,2′-Bipyridyl (1, 10, 50 and 100 μM, Sigma-Aldrich) or 6-aminonicotinamide (50 μM, Sigma-Aldrich) for 30 min and then stimulated in R10AB containing IL-12 (10 ng/ml), IL-1S (1 ng/ml) and IL-18 (50 ng/ml) for 6 hours.” left out
NK cells were seeded in U-bottom 96-well plates (2×10^5 cells/well). […] Cells were resuspended in FACS buffer and analyzed by flow cytometry. […] Data were analyzed with Flowjo®_V10.5 (Tree Star, USA).

In series [5] the test system is NV and CE NK cells. Description: Quantitative real-time PCR of IFNG and TFRC mRNA in NK cells. The class given is cell-based, human. The procedure: (§2) Blood samples were obtained from healthy donors after written informed consent. Peripheral blood mononuclear cells were isolated by standard density-gradient centrifugation protocols (Lymphoprep; Fresenius Kabi). NK cells were negatively selected using EasySep negative NK cell isolation kit (Stemcell). Human NK cells were maintained in RPMI-1640 medium (Invitrogen) supplemented with 10% heat-inactivated human AB serum, 50 U/ml penicillin (Invitrogen) and 50 μg/ml streptomycin (Invitrogen) (R10AB). To generate CE NK cells, isolated NK cells were primed in R10AB containing IL-12 (10 ng/ml, R&D systems), IL-15 (1 ng/ml, PeproTech) and IL-18 (50 ng/ml, R&D systems) over-night. The next day cells were washed twice with PBS and maintained in R10AB containing IL-15 (1 ng/ml) until stimulation. Every 2-3 days 50% of the medium was replaced with fresh IL-IS (1 ng/ml). […]
RNA was isolated from NK cells using Trizol (Thermo Fisher Scientific) and chloroform (Sigma-Aldrich) according to manufacturer's protocol, then purified with RNeasy RNA purification mini kit (QIAGEN, Germany). RNA concentration was determined using the NanoDrop 2000C (Thermo Fisher Scientific). […] Quantitative PCR for IFNG, TFRC and 18S mRNA was done in triplicate using commercially designed primers from Life Technologies (Hs00989291_m1, Hs00951083_m1, Hs03003631_g1). […]

In series [6] the test system is NV and CE NK cells. Description: IFN-γ measurement in human NK cells (bead-based immunoassay of supernatants). The class given is cell-based. The note with it: IL-12/IL-18 stimulation 6 hours, 2-DG 10 mM pre-incubated 30 min. The procedure: as §2, with “ng/ml). After 7 days cells were stimulated in R10AB containing IL-12 (10 ng/ml), IL-15 (1 ng/ml) and IL-18 (50 ng/ml) or with K562 leukemia targets (effector: target ratio, 5:1) for 6 hours.” for “ng/ml).”
NK cells were seeded in U-bottom 96 well plates (2×10^5 cells/well) using R10AB. […] Cell supernatants were harvested after stimulation and IFN-γ was measured using a human Th1 cytokine bead-based immunoassay (Legendplex, Biolegend) according to manufacturer's protocol.

Numbered stars: 1 amine (or outer) side, 2 acyl side, 3 side chain; on linkers, the order of the positions; unused ones are H or OH. Bridge positions count the residues as written; N and C are the ends. Square brackets hold non-standard residues; d marks the D form. Peptide text beside a SMILES is read from it. I, II: the chains in the order shown. Actinocin(9to1) = Cc1c2oc3c(C)ccc(C(=O)[*:1])c3nc-2c(C(=O)[*:2])c(N)c1=O; NMeV = CN[C@H](C(=O)O)C(C)C; Sar = CNCC(=O)O

For `NC(=O)c1ccc(N)nc1` [6AN, 6-aminonicotinamide], in series [1] (IL-12/IL-18 + 6AN 50 μM, NV and CE NK cells), the “expansion / proliferation of cytokine-stimulated NK cells (CFSE dilution)” value was “prevented expansion of cytokine-stimulated NK cells”.
For `C[C@@H]1C[C@@H]([C@H](O)CC2CC(=O)NC(=O)C2)C(=O)[C@@H](C)C1` [cycloheximide], the “stimulation-induced upregulation of CD71 (total CD71, Western blot)” value in series [2] was “entirely prevented stimulation-induced upregulation of CD71”.
On to `O=CC[C@@H](O)[C@H](O)[C@H](O)CO` [2-DG, 2-deoxy-d-glucose], for which, in series [3] (IL-12/IL-18 + 2-DG, NV and CE NK cells), the “Cell surface expression of CD71” value is recorded as “followed the same pattern”. Moreover, in series [4], the “transferrin uptake (Tf-488)” value is “reduced transferrin uptake”. Moreover, the “TFRC mRNA abundance” value in series [5] (IL-12/IL-18 + 2-DG) is listed as “similarly reduced”. In addition, the “IFNG mRNA abundance” value in series [5] (IL-12/IL-18 stimulation 6 hours, 2-DG 10 mM pre-incubated 30 min) is reported as “similarly reduced”. Also, in series [6], the IFN-γ secretion result was “similarly reduced”.
Consider `c1ccc(-c2ccccn2)nc1` [BIP, 2,2′-bipyridyl], for which the “NK cell activation as assessed by CD69 expression” value in series [3] (IL-12/IL-18 + BIP 100 μM) is given as “no effect on NK cell activation”. Also, the cell viability result in series [1] is “minimal effects on cell viability”. In addition, in series [1] (IL-12/IL-18 + BIP 1, 10 and 50 μM, NV and CE NK cells, 65 hours post-stimulation), the “NK cell proliferation (CFSE dilution)” value is “inhibited NK cell proliferation in a dose-dependent manner”.
Turning to `Cc1c2oc3c(C)ccc(C(=O)N[C@@H]4C(=O)N[C@H](C(C)C)C(=O)N5CCC[C@H]5C(=O)N(C)CC(=O)N(C)[C@@H](C(C)C)C(=O)O[C@@H]4C)c3nc-2c(C(=O)N[C@@H]2C(=O)N[C@H](C(C)C)C(=O)N3CCC[C@H]3C(=O)N(C)CC(=O)N(C)[C@@H](C(C)C)C(=O)O[C@@H]2C)c(N)c1=O` [Actinomcyin D, Actinomycin D] (I: T[dV]P[Sar][NMeV] / II: T[dV]P[Sar][NMeV]; ester I:1-I:C, II:1-II:C; linker I:N-II:N via Actinocin(9to1)), the “stimulation-induced upregulation of CD71 (total CD71, Western blot)” value in series [2] is recorded as “entirely prevented stimulation-induced upregulation of CD71”; in series [2] (listed as actinomycin) it was “prevented stimulation-induced upregulation of CD71”.

Values taken from patent publication US20220306989A1, “CELL THERAPY METHODS” (Universität Basel, priority 2019, published 2022).
